Experimental data taken from patent publication US20210139477A1, “ALK5 INHIBITORS, CONJUGATES, AND USES THEREOF” (Silverback Therapeutics, Inc., priority 2019, published 2021).

System: TGFb/SMAD Signaling Pathway SBE reporter cell line
Experiment: TGFb reporter assay (TGFb/SMAD Signaling Pathway SBE luciferase reporter cell line)
Type: cell-based
Conditions: 5-6 h preincubation, then TGFb, 18 h, luciferase luminescence
Protocol: TGFβ/SMAD Signaling Pathway SBE reporter cell line was obtained from BPS Bioscience. Cells were passed, expanded, and stored in liquid nitrogen as per the supplier's instructions with the exception that growth media is changed to DMEM-C with Geneticin (DMEM supplemented with 10% fetal bovine serum, 1×NEAA, 1 mM Pyruvate, 2 mM glutamine, 50 μg/mL penicillin, 50 U/mL streptomycin and 400 μg/mL of Geneticin). The assay media was MEM supplemented with 0.5% fetal bovine serum, 1×NEAA, 1 mM Pyruvate, 50 μg/mL penicillin and 50 U/mL streptomycin.
TGFb/SMAD Signaling Pathway SBE reporter cell line was obtained from BPS Bioscience. Cells were passed/expanded/stored in liquid nitrogen per supplier's instruction with the exception that growth media was changed to DMEM-C with Geneticin (DMEM supplemented with 10% fetal bovine serum, IX NEAA, 1 mM Pyruvate, 2 mM glutamine, 50 μg/mL penicillin, 50 U/mL streptomycin and 400 ug/mL of Geneticin). The assay media was MEM supplemented with 0.5% fetal bovine serum, IX NEAA, 1 mM Pyruvate, 50 μg/mL penicillin and 50 U/mL streptomycin.
Reporter cells were harvested from the tissue culture flasks by incubation in small quantity of Versene at room temperature for three to five minutes after the media in the flask was removed and cells rinsed with PBS. Cells were counted and diluted in the assay media at 0.8×10^6 cells/mL then 50 uL/well were added to 96-well assay plate. Test samples (at desired concentrations diluted in assay media) were added to assay plate containing the 50 uL/well of cells (or media only), 50 uL per well, and incubated for 5-6 hours at 37° C. in a 5% CO2 humidified incubator. After that time, 15 uL of TGFb diluted to 12.5 ng/mL in the assay media was added to the plate. Controls included TGFb titration (from 25 to 0 ng/mL) without inhibitors, and media only (without cells, inhibitor or TGFb). Plates were incubated at 37° C. in a […] humidified incubator for 18 h. Luciferase substrate solution was subsequently added at 75 uL per well, incubated in dark with shaking at room temperature for 10 min, and luminescence was measured using a luminometer.

Row | Structure (SMILES) | EC50 [nM]
1 | Cc1cccc(-c2nc(CN[C@H](C)c3ccccc3)[nH]c2-c2ccc3ncnn3c2)n1 [Compound 11] | 10 to 100
2 | Cc1cccc(-c2nc(CNCc3cccc(Oc4cccnc4)c3)[nH]c2-c2ccc3ncnn3c2)n1 [Compound 57] | 10 to 100
3 | Cc1cccc(-c2nc(CNCc3ccccc3-c3ccc(F)cc3)[nH]c2-c2ccc3ncnn3c2)n1 [Compound 35] | 0.1 to 10
4 | Cc1cccc(-c2nc(CNCc3cccc(Cl)c3)[nH]c2-c2ccc3ncnn3c2)n1 [Compound 2] | 10 to 100
5 | Cc1cccc(-c2nc(CNCc3ccccc3F)[nH]c2-c2ccc3ncnn3c2)n1 [Compound 18] | 0.1 to 10
6 | Cc1cccc(-c2nc(CNCCc3c(F)cccc3F)[nH]c2-c2ccc3ncccc3n2)n1 [Compound 78] | 0.1 to 10
7 | Cc1cccc(-c2nc(CNCc3ccccc3-c3ccccc3F)[nH]c2-c2ccc3ncnn3c2)n1 [Compound 38] | 0.1 to 10
8 | Cc1cccc(-c2nc(CNCc3ccccc3-c3ccc(CN)cc3)[nH]c2-c2ccc3ncnn3c2)n1 [Compound 34] | 100 to 1000
9 | COC(=O)[C@H](NCc1nc(-c2cccc(C)n2)c(-c2ccc3ncnn3c2)[nH]1)c1ccccc1 [Compound 15] | 100 to 1000
10 | Cc1cccc(-c2nc(CNCc3cccc(C)c3C)[nH]c2-c2ccc3ncnn3c2)n1 [Compound 45] | 0.1 to 10
11 | COc1ccccc1CCNCc1nc(-c2cccc(C)n2)c(-c2ccc3nccnc3c2)[nH]1 [Compound 87] | 0.1 to 10
12 | Cc1cccc(-c2nc(CNCc3ccccc3)[nH]c2-c2ccc3ncccc3c2)n1 [Compound 90] | 0.1 to 10
13 | Cc1cccc(-c2nc(CNCCc3c(F)cccc3F)[nH]c2-c2ccc3ncnn3c2)n1 [Compound 60] | 0.1 to 10
14 | Cc1cccc(-c2nc(CNCc3ccccc3-c3ccncc3)[nH]c2-c2ccc3ncnn3c2)n1 [Compound 42] | 10 to 100
15 | Cc1cccc(-c2nc(CNCc3ccccc3OC(F)(F)F)[nH]c2-c2ccc3ncnn3c2)n1 [Compound 26] | 0.1 to 10
16 | Cc1cccc(-c2nc(CNCCc3ccccc3)[nH]c2-c2ccc3ncnn3c2)n1 [Compound 52] | 0.1 to 10
17 | Cc1cccc(-c2nc(CNCCN(C)c3ccccc3)[nH]c2-c2ccc3ncnn3c2)n1 [Compound 67] | 0.1 to 10
18 | Cc1cccc(-c2nc(CNCc3ccccc3N(C)C)[nH]c2-c2ccc3ncnn3c2)n1 [Compound 25] | 0.1 to 10
19 | COc1ccc(OC)c(CNCc2nc(-c3cccc(C)n3)c(-c3ccc4ncnn4c3)[nH]2)c1 [Compound 9] | 10 to 100

Row | Structure (SMILES) | EC50 [nM]
20 | Cc1cccc(-c2nc(CNCc3c(Cl)cccc3Cl)[nH]c2-c2ccc3ncnn3c2)n1 [Compound 6] | 0.1 to 10
21 | Cc1cccc(-c2nc(CNCc3cccc(Cl)c3C)[nH]c2-c2ccc3ncnn3c2)n1 [Compound 47] | 0.1 to 10
22 | Cc1cccc(-c2nc(CNCc3ccccc3-c3ccccc3)[nH]c2-c2ccc3ncnn3c2)n1 [Compound 24] | 0.1 to 10
23 | Cc1cccc(-c2nc(CNCCc3c(F)cccc3F)[nH]c2-c2ccc3nccnc3c2)n1 [Compound 82] | 0.1 to 10
24 | Cc1cccc(-c2nc(CNCc3ccccc3C)[nH]c2-c2ccc3ncccc3n2)n1 [Compound 83] | 0.1 to 10
25 | Cc1cccc(-c2nc(CNCc3ccccc3)[nH]c2-c2ccc3ncccc3n2)n1 [Compound 73] | 100 to 1000
26 | Cc1cccc(-c2nc(CNCc3ccccc3Oc3ccccc3)[nH]c2-c2ccc3ncnn3c2)n1 [Compound 53] | 0.1 to 10
27 | Cc1cccc(-c2nc(CNCc3ccccc3-c3cccc(CN)c3)[nH]c2-c2ccc3ncnn3c2)n1 [Compound 33] | 100 to 1000
28 | Cc1cccc(-c2nc(CNC(c3ccccc3)c3ccccc3)[nH]c2-c2ccc3ncnn3c2)n1 [Compound 13] | 0.1 to 10
29 | Cc1cccc(CNCc2nc(-c3cccc(C)n3)c(-c3ccc4ncnn4c3)[nH]2)c1 [Compound 50] | 10 to 100
30 | Cc1cccc(-c2nc(CNCCc3c(F)cccc3F)[nH]c2-c2ccnc3ccccc23)n1 [Compound 79] | 100 to 1000
31 | Cc1cccc(-c2nc(CNCCc3ccccc3F)[nH]c2-c2ccc3ncnn3c2)n1 [Compound 59] | 0.1 to 10
32 | Cc1cccc(-c2nc(CNCCN(C)c3ccccc3)[nH]c2-c2ccc3nccnc3c2)n1 [Compound 88] | 0.1 to 10
33 | Cc1cccc(-c2nc(CNCCCc3ccccc3)[nH]c2-c2ccc3ncnn3c2)n1 [Compound 64] | 0.1 to 10
34 | Cc1cccc(-c2nc(CNCCOc3ccccc3)[nH]c2-c2ccc3ncnn3c2)n1 [Compound 65] | 0.1 to 10
35 | Cc1cccc(-c2nc(CNCc3ccccc3)[nH]c2-c2ccnc3ccccc23)n1 [Compound 74] | 100 to 1000
36 | Cc1cccc(-c2nc(CNCc3cccc(C)c3-c3ccccc3)[nH]c2-c2ccc3ncnn3c2)n1 [Compound 48] | 10 to 100
37 | Cc1cccc(-c2nc(CNCc3ccccc3-c3ccccc3)[nH]c2-c2ccc3c(c2)OCO3)n1 [Compound 71] | 100 to 1000
38 | Cc1cccc(-c2nc(CNCc3ccccc3C)[nH]c2-c2ccc3nccnc3c2)n1 [Compound 86] | 0.1 to 10

Row | Structure (SMILES) | EC50 [nM]
39 | Cc1cccc(-c2nc(CNCc3cccc(Oc4ccccc4)c3)[nH]c2-c2ccc3ncnn3c2)n1 [Compound 56] | 10 to 100
40 | Cc1cccc(-c2nc(CNCCNc3ccccc3)[nH]c2-c2ccc3ncnn3c2)n1 [Compound 66] | 0.1 to 10
41 | Cc1cccc(-c2nc(CNCc3ccccc3C(C)C)[nH]c2-c2ccc3ncnn3c2)n1 [Compound 23] | 0.1 to 10
42 | Cc1cccc(-c2nc(CNCc3ccccc3C3CCCC3)[nH]c2-c2ccc3ncnn3c2)n1 [Compound 44] | 10 to 100
43 | Cc1cccc(-c2nc(CNCc3ccccc3Oc3cccnc3)[nH]c2-c2ccc3ncnn3c2)n1 [Compound 54] | 0.1 to 10
44 | CCc1ccccc1CNCc1nc(-c2cccc(C)n2)c(-c2ccc3ncnn3c2)[nH]1 [Compound 22] | 0.1 to 10
45 | Cc1cccc(-c2nc(CNCc3ccccc3-c3ccccn3)[nH]c2-c2ccc3ncnn3c2)n1 [Compound 40] | 10 to 100
46 | COc1ccccc1CNCc1nc(-c2cccc(C)n2)c(-c2ccc3ncnn3c2)[nH]1 [Compound 17] | 10 to 100
47 | Cc1cccc(-c2nc(CNCc3ccccc3)[nH]c2-c2ccc3nccnc3c2)n1 [Compound 77] | 0.1 to 10
48 | Cc1cccc(-c2nc(CNCc3ccccc3-c3cccc(F)c3)[nH]c2-c2ccc3ncnn3c2)n1 [Compound 37] | 10 to 100
49 | Cc1cccc(-c2nc(CNCc3cccc(-c4ccccc4)c3)[nH]c2-c2ccc3ncnn3c2)n1 [Compound 51] | 100 to 1000
50 | Cc1cccc(-c2nc(CNCc3ccccc3C(O)C(F)(F)F)[nH]c2-c2ccc3ncnn3c2)n1 (stereo not drawn) [Compound 28] | 0.1 to 10
51 | Cc1cccc(-c2nc(CNCCN(C)c3ccccc3)[nH]c2-c2ccc3ncccc3n2)n1 [Compound 85] | 0.1 to 10
52 | Cc1cccc(-c2nc(CN[C@@H](CO)c3ccccc3)[nH]c2-c2ccc3ncnn3c2)n1 [Compound 14] | 10 to 100
53 | Cc1cccc(-c2nc(CNCc3ccccc3-c3ccc(CNC(=O)OC(C)(C)C)cc3)[nH]c2-c2ccc3ncnn3c2)n1 [Compound 31] | 100 to 1000
54 | Cc1cccc(-c2nc(CNCc3cccc(Oc4ccncc4)c3)[nH]c2-c2ccc3ncnn3c2)n1 [Compound 58] | 10 to 100
55 | Cc1cccc(-c2nc(CNCc3ccccc3-c3ccccc3)[nH]c2-c2ccc3nccnc3c2)n1 [Compound 72] | 10 to 100
56 | Cc1cccc(-c2nc(CNCc3ccc(Cl)cc3)[nH]c2-c2ccc3ncnn3c2)n1 [Compound 3] | 10 to 100
57 | COc1cccc(CNCc2nc(-c3cccc(C)n3)c(-c3ccc4ncnn4c3)[nH]2)c1 [Compound 7] | 0.1 to 10
